One assay relates to Botrytis cinerea (Bc). The experiment in a line: Antifungal activity of AITC vapor and coating agent against Botrytis cinerea (Bc) in strawberries. It counts as in vivo. Particulars: 30 minutes. How it is done: Example 13. The antifungal activity of AITC vapor against Bc in strawberries was tested. All samples were wounded by making a 3 mm deep puncture in the skin. Samples were infected by dispensing 1000 Bc spores suspended in 10 μL of water in the wound. Samples were then incubated at ambient temperature, imaged, and assessed for mold over the following 3 days. The test group consisted of strawberries that were: uninfected and untreated; infected and untreated; and exposed for 30 minutes to the vapor of 125 uL AITC dispensed on Whatman filter paper. […] The infection rates in the initially uninfected sample indicate that the step involving the initial infection of the wound by dispensing the Bc spores may not be necessary to promote infection in the test groups.
Example 14. The antifungal activity of a range of AITC vapor concentrations against Bc in strawberries was tested. Samples were treated by exposure for 30 minutes to the vapor of a range of volumes of AITC disposed on a filter paper disc, then incubated at ambient temperature, imaged, and assessed for mold over the following 6 days. Test groups consisted of strawberries that were untreated and strawberries exposed to the vapor of 62.5 μL, 125 μL, 250 μL, and 500 μL of AITC. […] On day 6, 83% of the untreated control strawberries were infected, 100% of the 62.5 μL AITC dose strawberries were infected, 13% of the 125 μL AITC dose strawberries were infected, and 0% of the 250 and 500 μL AITC dose strawberries were infected. For strawberries incubated at room temperature, all of the AITC doses above 62.5 μL were effective at preventing mold, with doses above 125 μL substantially eliminating mold.
Example 15. The antifungal activity of AITC vapor under different exposure conditions against Bc in strawberries was tested. Test groups consisted of strawberries that were untreated and treated by exposure for 30 minutes to the vapor of 125 μL of AITC disposed on a filter paper disc. Test groups were then incubated in either open or closed containers at 4° C., imaged, and assessed for mold over the following 14 days. […] All samples were free of mold through 7 days. On day 12, 16.7% of the open air controls were infected, 29.2% of closed container controls were infected, and 0% of the AITC treated were infected. On day 14, 33.3% of the open air controls were infected, 41.7% of closed container controls were infected, 0% of the open air AITC treated were infected, and 4.2% of the closed container AITC treated were infected. For strawberries incubated at 4° C., AITC treatment was effective in reducing the incidence of mold over a two week period. While ⅓ of the open air untreated samples were infected, none of the open air AITC-treated were infected. Over 40% of the closed container controls were infected. A single strawberry was infected in the closed container AITC-treated test group.
Example 16. The antifungal activity of AITC vapor against Bc in strawberries treated with a coating agent (95 wt % glyceryl monostearate and 5 wt % sodium stearate) and exposed to vapor in clamshells was tested. Test groups consisted of strawberries that were: untreated; dipped in 40 g/L solution of the coating agent; exposed for 30 minutes to the vapor of 125 μL of AITC disposed on a filter paper disc; and dipped in 40 g/L solution of the coating agent and exposed for 30 minutes to the vapor of 125 μL of AITC disposed on a filter paper disc. Samples were treated, incubated at ambient temperature, imaged, and assessed for mold over the following 4 days. […] On day 3, 52.8% of the controls were infected, 42.1% of the coating agent were infected, 26.3% of the AITC were infected, and 9.3% of the coating agent+AITC were infected. On day 4, 88.9% of the controls were infected, 76.3% of the coating agent were infected, 71% of the AITC were infected, and 34.9% of the coating agent+AITC were infected. […] Bowl dipping in the coating solution also presented challenges for drying around the calyx.
Example 17. […]

Assay [1] deals with non-Pd latent fungal infection. The assay is described as follows: AITC vapor against non-Pd latent fungal infection in mandarins. It counts as in vivo. The conditions noted are these: Example 5; 125 μL (730 ppm), 1 hour exposure. Here is the method: Example 5. The antifungal activity of a range of AITC vapor exposure times was tested to determine the effects against Pd in mandarins. All samples were wounded by puncturing with a screw. Mandarins were infected by dispensing 1000 Pd spores suspended in 10 μL of water in the wound. The fruit was then placed in an airtight container, 125 μL of AITC was dispensed onto a Whatman filter paper disc, the disc suspended in front of a battery-powered fan, and the container closed for 15 minutes to 2 hours. The test groups were then left at ambient temperature, high humidity, and assessed for Pd mold after 6 days. The test groups consisted of mandarins that were: uninfected and untreated; infected and untreated; infected and treated with 0.5 g/L imazalil; infected, treated with 125 μL of AITC on the filter paper, and exposed to the vapor for 15 minutes, 30 minutes, 1 hour, and 2 hours. […] A non-Pd latent fungal infection confounded results for the imazalil control and the 1 hour AITC treatment. […] A 30 minute exposure to an AITC vapor concentration of 730 ppm appeared to either substantially prevent mold infection or reduce the severity of infection. Longer exposure time increased the antifungal efficacy. […] Longer exposure times were effective at largely eliminating these pathogens.

Turning to `C=CCN=C=S` [AITC, allyl isothiocyanate], in the assay with Botrytis cinerea (Bc) (Example 13, 125 uL, after 24 hours), the “visible mold on strawberries” value is on record as “no mold was visible”. Further, the “fraction of samples showing visible mold” value is given as “⅛” in the assay on Botrytis cinerea (Bc) (Example 13, 125 uL, after 48 hours) and “¼” in the assay on Botrytis cinerea (Bc) (Example 13, 125 uL, after 72 hours). For the same compound, the strawberries infected in the assay with Botrytis cinerea (Bc) (Example 14, 62.5 μL dose, day 6, ambient temperature) was found to be 100%; in the assay on Botrytis cinerea (Bc) (Example 14, 125 μL dose, day 6, ambient temperature) it was 13%; with Botrytis cinerea (Bc) (Example 14, 250 and 500 μL dose, day 6, ambient temperature), 0%; with Botrytis cinerea (Bc) (Example 15, 125 μL, 4° C., closed container, day 14), 4.2%; with Botrytis cinerea (Bc) (Example 15, 125 μL, 4° C., open air, day 14), 0%; with Botrytis cinerea (Bc) (Example 15, 125 μL, incubated at 4° C., day 12), 0%. In addition, the strawberries infected is on record as 26.3% in the assay on Botrytis cinerea (Bc) (Example 16, clamshells, coating agent 40 g/L dip, AITC 125 μL, day 3) and 71% in the assay on Botrytis cinerea (Bc) (Example 16, clamshells, coating agent 40 g/L dip, AITC 125 μL, day 4). Moreover, in assay [1], the “response of latent pathogens to AITC vapor” value is reported as “substantially resistant to AITC vapor”.

The values above are taken from US20230292776A1, “GAS PHASE TREATMENT OF PRODUCE” (priority 2022, published 2023).
